The subject of one data set is HT 29 GCC #18 cells. As to the kind of experiment: Direct cytotoxicity assay (WST), HT 29 GCC #18 cells. The format is cell-based, human. The note with it: auristatin ADCs.
A further data set has as its system HT29-GCC#5 s.c. tumors. Briefly: Pilot efficacy studies in HT29-GCC#5 s.c. tumors. The class given is in vivo. The note with it: 150 μg/kg on a q3d×5 schedule, mice bearing HT29-GCC#5 tumors. Here is the method:
Studies were performed to determine efficacious conjugates and dosage regimens in mice bearing HT29-GCC#5 tumors. Mice were dosed with single or multiple doses. These studies determined that there was toxicity at too frequent dosing at higher levels of toxin conjugate (e.g., 150 μg/kg 5F9vcMMAF on a q3d×5 schedule). Another study determined that q14d×5 schedule was too infrequent in this model to allow some toxin conjugates to show significant efficacy vs. controls.

The test system of another data set is 293-GCC#2 tumors. As to the kind of experiment: PK/PD study (phospho-histone H3) in 293-GCC#2 tumor bearing mice. The class given is in vivo. The text has this: Phospho-histone H3 was detected by antibody (Upstate Biotechnology, now Millipore, Billerica, Mass.) staining of paraffin embedded sections of tumors.
Another data set deals with 293-GCC#2 s.c. tumors. As to the kind of experiment: Efficacy study with 5F9vcMMAF and 5F9-DMx in 293-GCC#2 s.c. tumors, q14d×5. The class given is in vivo. The note with it: 293-GCC#2 bearing SCID mice, 75 and 150 μg/kg toxin. Here is the method:
5F9-SPDB-DM4, 5F9-SMCC-DM1 and 5F9vcMMAF were tested for efficacy in the 293-GCC#2 tumor model at two doses (75 μg/kg and 150 […] toxin), on a q14d×5 schedule. Specifically, this study included vehicle-treated control, Sc209-DM1 (150 μg/kg DM1 eq), Sc209-DM4 (150 μg/kg DM4 eq), Sc209-vcMMAF (150 μg/kg MMAF eq), 5F9-DM1 (150 μg/kg DM1 eq), 5F9-DM1 (75 μg/kg DM1 eq), 5F9-DM4 (150 μg/kg DM4 eq), 5F9-DM4 (75 μg/kg DM4 eq), 5F9-vcMMAF (150 μg/kg MMAF eq), and 5F9-vcMMAF (75 μg/kg MMAF eq). Taconic female mice bearing 293-GCC#2 cells (10 mice per group) were used.
FIG. 1 depicts tumor growth in 293-GCC#2 bearing SCID mice treated with 5F9vc-MMAF, -DM1, and -DM4 on a q14d schedule. […] Therefore at these doses and schedules, 5F9-SPDB-DM4 had the greatest efficacious differential from its control conjugate.

Another data set deals with 293 GCC#2 tumors. As to the kind of experiment: Efficacy study with auristatin conjugates in 293 GCC#2 tumors, q7d×4. The note with it: for T/C: treatment/control. The format is in vivo, SCID mice. Here is the method: 293 GCC#2 tumor-bearing SCID mice were treated with 5F9 conjugates with vc MMAE, vcMMAF or mcMMAF at three doses in comparison with 209 conjugates of these toxins or with free toxins or vehicle control. Doses were administered iv on a q7d×4 schedule. Tumors were harvested at days 3, 7, 10, 13 and 17. […] Table 18 provides a summary of the results (TGI=tumor growth inhibition, T/C=treatment/control, TGD=tumor growth delay, CR/PR=complete response/partial response; p value=measure to judge statistical significance, NS=not significant).

Data set [1] has as its system PHTX-249 Pa s.c. xenograft. Briefly: 5F9 vcMMAE and gemcitabine in PHTX-249 Pa s.c. xenografts (Study CPGC-13-EF05). The class given is in vivo, CB-17 SCID mice. The note with it: reference vehicle. As to the method: (§1) Day D0 was the first day of treatment.
(§2) Tumor volume was calculated using the formula: […]
(§3) A negative dAUC is interpreted as an increase in AUC relative to the reference. It is important to evaluate not only the P value, but also the dAUC. Comparisons with significant P values, but small dAUC values, may not be of interest.

Data set [2] has as its system PHTX-215 Pa s.c. xenograft. As to the kind of experiment: 5F9 vcMMAE and gemcitabine in PHTX-215 Pa s.c. xenografts (Study CPGC-13-EF10). The format is in vivo, CB-17 SCID mice. The note with it: for dAUC (percent decrease in treatment AUC relative to reference group V, vehicle): PHTX-215 Pa s.c. xenograft, CB-17 SCID mice. Here is the method: as §1, §2
Table 77A the annotation table for group symbols. […] A negative dAUC is interpreted as an increase in AUC relative to the reference. It is important to evaluate not only the P value, but also the dAUC. Comparisons with significant P values, but small dAUC values, may not be of interest.

Data set [3] deals with PHTX-249 Pa s.c. xenograft. As to the kind of experiment: 5F9 vcMMAE and gemcitabine in PHTX-249 Pa s.c. xenografts (Study CPGC-13-EF08). The format is in vivo, CB-17 SCID mice. The note with it: for dAUC: reference vehicle. As to the method: 264.4 ul stock Gemcitabine into 3135.6 ul NS.
as §1, §2, §3

Setting [4] is: PHTX-215 Pa, immunoconjugate plus gemcitabine 15 mg/kg on days 1 and 3, or single agent gemcitabine.

Bounds are passed on as bounds.

For the compound “5F9-vcMMAF: 5F9 anti-GCC antibody conjugated with mc-vc-MMAF”, in the data set on HT 29 GCC #18 cells, the “LD 50 (nM)” value is >10,000 nM. Further, in the data set with HT29-GCC#5 s.c. tumors, the “toxicity at too frequent dosing” value is “toxicity”. The “Average % Tumor cells pH 3 positive” value in the data set with 293-GCC#2 tumors (single iv dose 75 μg/kg, 1 hr) was 4.235%; in the data set with 293-GCC#2 tumors (single iv dose 75 μg/kg, 4 hr) it was 4.184%; with 293-GCC#2 tumors (single iv dose 75 μg/kg, 8 hr) it was 4.93%; in the data set on 293-GCC#2 tumors (single iv dose 75 μg/kg, 24 hr) it was 20.22%; in the data set with 293-GCC#2 tumors (single iv dose 75 μg/kg, 48 hr) it was 9.921%; with 293-GCC#2 tumors (single iv dose 75 μg/kg, 96 hr), 10.38%. Also, the “Average % Tumor cells pH 3 positive” value was 3.466% in the data set on 293-GCC#2 tumors (single iv dose 150 μg/kg, 1 hr); 4.417% with 293-GCC#2 tumors (single iv dose 150 μg/kg, 4 hr); 8.594% with 293-GCC#2 tumors (single iv dose 150 μg/kg, 8 hr); 21.54% with 293-GCC#2 tumors (single iv dose 150 μg/kg, 24 hr); 15.16% with 293-GCC#2 tumors (single iv dose 150 μg/kg, 48 hr); 11.12% in the data set with 293-GCC#2 tumors (single iv dose 150 μg/kg, 96 hr). In addition, the “efficacy (tumor growth, FIG. 1)” value with 293-GCC#2 s.c. tumors was “the most efficacious”. The TGI with 293 GCC#2 tumors (37.5 μg/kg iv q7d×4) was 65.2; with 293 GCC#2 tumors (75 μg/kg iv q7d×4) it was 88.5; with 293 GCC#2 tumors (150 μg/kg iv q7d×4), 97. In addition, the values for the T/C in the data set with 293 GCC#2 tumors (37.5 μg/kg iv q7d×4), with 293 GCC#2 tumors (75 μg/kg iv q7d×4) and with 293 GCC#2 tumors (150 μg/kg iv q7d×4) were 0.35, 0.12 and 0.03, respectively. In addition, the TGD with 293 GCC#2 tumors (37.5 μg/kg iv q7d×4, tumor growth delay) was determined as 7.1.

With `Nc1ccn([C@@H]2O[C@H](CO)[C@@H](O)C2(F)F)c(=O)n1` [gemcitabine], the dAUC in data set [1] (group B: Gemcitabine 15 mg/kg BIW) amounted to 46.0%; in data set [1] (group C: Gemcitabine 20 mg/kg BIW) it was 46.7%; in data set [3] (group D: Gemcitabine 15 mg/kg BIW), 52.4%; in data set [3] (group E: Gemcitabine 15 mg/kg D1,D3/week), 76.9%. The TGI in data set [2] (setting [4]) stood at 69%. For the same compound, the tumor growth delay came to 22.7 days in data set [2] (setting [4]); 17 days in data set [3] (PHTX-249 Pa, 5F9 vcMMAE plus gemcitabine 15 mg/kg on days 1 and 3 vs single agent). Further, the “tumor regressions (animals)” value is listed as “no tumor regressions” in data set [2] (setting [4]); “no tumor regressions” in data set [3] (PHTX-249 Pa (Studies CPGC-13-EF05/EF08), 5F9 vcMMAE 7.5 mg/kg, gemcitabine 15 mg/kg on days 1 and 3, alone or combined). In addition, the “dAUC (percent decrease in treatment AUC relative to reference group V, vehicle)” value in data set [2] (group C: Gemcitabine 15 mg/kg IV D1,D3/week x3) turned out to be 61.0%; in data set [2] (group F: Gemcitabine 20 mg/kg IV BIW) it was 65.2%.
